Laboratory results taken from patent publication US20260224613A1, “Use Of Inorganic Nitrate For Preventing Restenosis And/Or Device Thrombosis” (Queen Mary University of London, priority 2023, published 2026).

Assays:
[1] = tested on: Human Coronary Arterial Endothelial Cells (HCAEC); conditions: NaNO2 3 μM; hypoxia 0.1% O2 24 h, re-oxygenation 8, 24 and 48 h; FIG. 2
Description: (§1) FIG. 2—Effects of NaNO2 on cell proliferation of Human Coronary Arterial Endothelial Cells (HCAEC) and Human Coronary Arterial Smooth Muscle Cells (HCSMC) exposed to Ischaemia/Reperfusion injury. Cell Count of HCAEC and HCASMC respectively under hypoxia (0.1% O2, 24 h) and re-oxygenation (normoxia, 8, 24 and 48 h post ischaemia)) in the absence and presence of NaNO2 3 μM. n=7/group for HCAEC and n=5/group for HCASMC. Results are expressed as % changes of the respective matched normoxia controls. Data represent mean±SEM of the number of independent experiments performed as indicated above. Statistical significance determined using two-way ANOVA followed by post-test comparing response at each timepoint between treatments determined using Sidak's multiple comparison test.

[2] = tested on: Human Coronary Arterial Smooth Muscle Cells (HCSMC); conditions: NaNO2 3 μM; hypoxia 0.1% O2 24 h, re-oxygenation 8, 24 and 48 h; FIG. 2
Description: as §1

O=N[O-].[Na+] [nitrite, NaNO2]
endothelial cell growth following an ischaemia-reperfusion insult [1]: improves
growth of vascular smooth muscle cells following an ischaemia-reperfusion insult [2]: suppressing
